Assay results published in patent US20250019373A1, “ARYL OR HETEROARYL DERIVATIVE, AND PHARMACEUTICAL COMPOSITION COMPRISING SAME AS ACTIVE INGREDIENT FOR PREVENTION OR TREATMENT OF KINASE-RELATED DISEASES” (VORONOI INC., priority 2021, published 2025).

system: HT-29 cells; assay: Cell necrosis inhibitory activity under necroptosis-inducing conditions (TNF-α, Z-VAD-FMK, LCL161) in HT-29 cells, Cell Titer-Glo; type: cell-based; conditions: Homo sapiens, 100 ng/mL TNF-α + 25 μM Z-VAD-FMK + Smac mimetic LCL161, 24 hours, cell viability
In short: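 HT-29 cells seeded 24 h, then necroptosis induced with 100 ng/mL TNF-α, 25 μM Z-VAD-FMK and 10 μM LCL161 for 10 min before compound (11 points, 3-fold, top 0.1 or 1 μM; 0.05% DMSO). After 24 h, viability by CellTiter-Glo luminescence relative to untreated controls gave EC50 (nM).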

Row | SMILES | EC50
1 | COc1ncc(-c2ccc3nc(NC(=O)C4CC4)cn3n2)cc1NC(=O)N1OCC[C@H]1c1ccccc1 [Example 4, (S)-N-(5-(2-(cyclopropanecarboxamido)imidazo[1,2-b]pyridazin-6-yl)-2-methoxypyridin-3-yl)-3-phenylisoxazolidine-2-carboxamide] | 0.2 nM
2 | Cc1ccc(-c2ccc3nc(N)cn3n2)cc1NC(=O)N1OCC[C@H]1c1ccccc1 [Example 95, (S)-N-(5-(2-aminoimidazo[1,2-b]pyridazin-6-yl)-2-methylphenyl)-3-phenylisoxazolidine-2-carboxamide] | 7.5 nM
3 | Cc1ncc(-c2ccc3nc(N)nn3c2)cc1NC(=O)N1OCC[C@H]1c1ccc(F)c(Cl)c1 [Example 42, (S)-N-(5-(2-amino-[1,2,4]triazolo[1,5-a]pyridin-6-yl)-2-methylpyridin-3-yl)-3-(3-chloro-4-fluorophenyl)isoxazolidine-2-carboxamide] | 0.6 nM
4 | Cc1cc(F)c(-c2ccc3nc(N)nn3c2)cc1NC(=O)N1OCC[C@H]1c1ccccc1 [Example 34, (S)-N-(5-(2-amino-[1,2,4]triazolo[1,5-a]pyridin-6-yl)-4-fluoro-2-methylphenyl)-3-phenylisoxazolidine-2-carboxamide] | 0.5 nM
5 | Nc1nc2cc(-c3ccc(F)c(NC(=O)N4OCC[C@H]4c4ccccc4)c3)ccn2n1 [Example 123, (S)-N-(5-(2-amino-[1,2,4]triazolo[1,5-a]pyridin-7-yl)-2-fluorophenyl)-3-phenylisoxazolidine-2-carboxamide] | 0.3 nM
6 | Cc1ccc(-c2ccn3nc(N)cc3c2)cc1NC(=O)N1Oc2ccccc2[C@H]1c1ccccc1 [Example 139, (R)-N-(5-(2-aminopyrazolo[1,5-a]pyridin-5-yl)-2-methylphenyl)-3-phenylbenzo[d]isoxazole-2(3H)-carboxamide] | 2.2 nM
7 | Cc1ccc(-c2ccn3nc(N)nc3c2)cc1NC(=O)N1OCC[C@H]1c1ccc(C#N)cc1 [Example 92, (S)-N-(5-(2-amino-[1,2,4]triazolo[1,5-a]pyridin-7-yl)-2-methylphenyl)-3-(4-cyanophenyl)isoxazolidine-2-carboxamide] | 0.6 nM
8 | CNC(=O)c1n[nH]c2cc(-c3cc(NC(=O)N4OCC[C@H]4c4ccccc4)cnc3C)ccc12 [Example 18, (S)-N-(6-methyl-5-(3-(methylcarbamoyl)-1H-indazol-6-yl)pyridin-3-y1)-3-phenylisoxazolidine-2-carboxamide] | 0.3 nM
9 | CNC(=O)c1n[nH]c2cc(-c3cnc(OC)c(NC(=O)N4OCC[C@H]4c4ccccc4)c3)ccc12 [Example 22, (S)-N-(2-methoxy-5-(3-(methylcarbamoyl)-1H-indazol-6-yl)pyridin-3-yl)-3-phenylisoxazolidine-2-carboxamide] | 0.3 nM
10 | Cc1ncc(-c2ccc3nc(N)nn3c2)cc1NC(=O)N1OCC[C@H]1c1cccc(Cl)c1 [Example 39, (S)-N-(5-(2-amino-[1,2,4]triazolo[1,5-a]pyridin-6-yl)-2-methylpyridin-3-yl)-3-(3-chlorophenyl)isoxazolidine-2-carboxamide] | 0.9 nM
11 | COc1ccc(-c2ccc3nc(NC(C)=O)oc3c2)cc1NC(=O)N1OCC[C@H]1c1ccccc1 [Example 16, (S)-N-(5-(2-acetamidobenzo[d]oxazol-6-yl)-2-methoxyphenyl)-3-phenylisoxazolidine-2-carboxamide] | 4.9 nM
12 | Cc1ccc(-c2ccn3ncnc3c2)cc1NC(=O)N1OCC[C@H]1c1ccccc1 [Example 102, (S)-N-(5-([1,2,4]triazolo[1,5-a]pyridin-7-yl)-2-methylphenyl)-3-phenylisoxazolidine-2-carboxamide] | 0.9 nM
13 | Cc1ccc(-c2ccc3nc(N)oc3c2)cc1NC(=O)N1OCC[C@H]1c1ccccc1 [Example 109, (S)-N-(5-(2-aminobenzo[d]oxazol-6-yl)-2-methylphenyl)-3-phenylisoxazolidine-2-carboxamide] | 1 nM
